Read-outs that look alike come from different tables or passages of the source.
Tests used:
Type in all cases: in vivo
[1] = system: barnyardgrass (Echinochloa crus-galli); assay: Test C flooded paddy test: barnyardgrass; settings: Echinochloa crus-galli, scale 0 to 100 (0 no effect, 100 complete control), read-out: Plant response rating, Barnyardgrass; for pest or weed control at 62 g/ha: 62 g ai/ha; for pest or weed control at 250 g/ha: 250 g ai/ha; for pest or weed control at 125 g/ha: 125 g ai/ha
How it was run: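 Greenhouse plants treated at the 2-leaf stage by dosing the flood water (3 cm depth, maintained) were compared with controls after 13 to 15 days and rated 0 to 100, where 100 means complete control; a dash marks no test result.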

[2] = system: pigweed (Amaranthus retroflexus); assay: Test D pre-/postemergence: pigweed
Text: (§1) Seeds of plant species selected from bluegrass (annual bluegrass, Poa annua), blackgrass (Alopecurus myosuroides), canarygrass (Phalaris minor), chickweed (common chickweed, Stellaria media), galium (catchweed bedstraw, Galium aparine), bromegrass, downy (downy bromegrass, Bromus tectorum), field poppy (Papaver rhoeas), field violet (Viola arvensis), foxtail, green (green foxtail, Setaria viridis), deadnettle (henbit deadnettle, Lamium amplexicaule), ryegrass, Italian (Italian ryegrass, Lolium multiflorum), kochia (Kochia scoparia), lambsquarters (Chenopodium album), oilseed rape (Brassica napus), pigweed (Amaranthus retroflexus), Russian thistle (Salsola iberica), chamomile (scentless chamomile, Matricaria inodora), speedwell (bird's-eye speedwell, Veronica persica), barley, spring (spring barley, Hordeum vulgare), wheat, spring (spring wheat, Triticum aestivum), buckwheat, wild (wild buckwheat, Polygonum convolvulus), mustard, wild (wild mustard, Sinapis arvensis), oat, wild (wild oat, Avena fatua), radish, wild (wild radish, Raphanus raphanistrum), windgrass (Apera spica-venti), barley, winter (winter barley, Hordeum vulgare), and wheat, winter (winter wheat, Triticum aestivum) were planted into a silt loam soil and treated preemergence with test chemicals formulated in a non-phytotoxic solvent mixture which included a surfactant. At the same time, these same crop and weed species were planted in pots containing the planting medium comprising spaghnum peat moss, vermiculite, wetting agent and starter nutrients and treated with postemergence applications of the test chemicals formulated in the same manner. Plants ranged in height from 2 to 18 cm (1- to 4-leaf stage).
(§2) Treated plants and controls were maintained in a controlled growth environment for 14 to 21 days after which time all species were compared to controls and visually evaluated. Plant response ratings, summarized in Table D, are based on a scale of 0 to 100 where 0 is no effect and 100 is complete control. A dash (-) response means no test result.

[3] = system: galium (catchweed bedstraw, Galium aparine); assay: Test D pre-/postemergence: galium; settings: for Plant response rating, Galium: scale 0 to 100
Text: as §1, §2

[4] = system: buckwheat, wild (wild buckwheat, Polygonum convolvulus); assay: Test D pre-/postemergence: buckwheat, wild
Text: as §1, §2

[5] = Flood (flooded paddy test), visual rating after 13 to 15 days
[6] = Postemergence, 31 g ai/ha, scale 0 to 100 (0 no effect, 100 complete control)
[7] = Postemergence, 62 g ai/ha, scale 0 to 100 (0 no effect, 100 complete control)
[8] = Postemergence, 125 g ai/ha, scale 0 to 100, 0 no effect, 100 complete control
[9] = Postemergence, 250 g ai/ha, scale 0 to 100 (0 no effect, 100 complete control)
[10] = Preemergence, 31 g ai/ha, scale 0 to 100, 0 no effect, 100 complete control
[11] = Preemergence, 62 g ai/ha, scale 0 to 100
[12] = Preemergence, 125 g ai/ha, scale 0 to 100
[13] = Preemergence, 250 g ai/ha, scale 0 to 100
[14] = Postemergence, 16 g ai/ha, scale 0 to 100
[15] = Preemergence, 16 g ai/ha, scale 0 to 100, 0 no effect, 100 complete control

| Structure (SMILES) | pest or weed control at 62 g/ha [1, 5] | pest or weed control at 250 g/ha [1, 5] | Plant response rating: Pigweed [2, 6] | Plant response rating: Pigweed [2, 7] | Plant response rating: Pigweed [2, 8] | Plant response rating: Pigweed [2, 9] | Plant response rating, Pigweed [2, 10] | Plant response rating, Pigweed [2, 11] | Plant response rating, Pigweed [2, 12] | Plant response rating: Galium [3, 6] | Plant response rating: Galium [3, 7] | Plant response rating: Galium [3, 8] | Plant response rating: Galium [3, 9] | Plant response rating: Buckwheat, Wild [4, 6] | Plant response rating: Buckwheat, Wild [4, 7] | Plant response rating: Buckwheat, Wild [4, 8] | Plant response rating: Buckwheat, Wild [4, 9] | Plant response rating, Buckwheat, Wild [4, 10] | Plant response rating, Buckwheat, Wild [4, 11] | Plant response rating, Buckwheat, Wild [4, 12] | other results |
| --- | --- | --- | --- | --- | --- | --- | --- | --- | --- | --- | --- | --- | --- | --- | --- | --- | --- | --- | --- | --- | --- |
| Cc1nn(-c2ccc(C(F)(F)F)cc2)nc1Oc1csc(C(F)(F)F)c1 [Compound 1, 4-methyl-2-[4-(trifluoromethyl)phenyl]-5-[[5-(trifluoromethyl)-3-thienyl]oxy]-2H-1,2,3-triazole] | 0% | 0% | – | – | – | – | – | – | – | – | – | – | – | – | – | – | – | – | – | – | – |
| FC(F)(F)COc1nn(-c2ccc(C(F)(F)F)cc2)nc1Cc1ccnc(C(F)(F)F)c1 [Compound 14, 4-[[5-(2,2,2-trifluoroethoxy)-2-[4-(trifluoromethyl)phenyl]-2H-1,2,3-triazol-4-yl]methyl]-2-(trifluoromethyl)pyridine] | 50% | 70% | 100 | 100 | 100 | 100 | 20 | 70 | 90 | 45 | 55 | 55 | 70 | 0 | 40 | 60 | 100 | 0 | 30 | 35 | Plant response rating, Pigweed [2, 13]: 100; Plant response rating, Galium ([3]; Preemergence, 62 g ai/ha): 0; Plant response rating, Galium ([3]; Preemergence, 125 g ai/ha): 100; Plant response rating, Galium ([3]; Preemergence, 250 g ai/ha): 100; Plant response rating, Buckwheat, Wild [4, 13]: 40 |
| COCc1nn(-c2ccc(C(F)(F)F)cc2)nc1Oc1cccc(OC(F)(F)F)c1 [Compound 115, 4-(methoxymethyl)-5-[3-(trifluoromethoxy)phenoxy]-2-[4-(trifluoromethyl)phenyl]-2H-1,2,3-triazole] | – | 60% | – | – | – | – | – | – | – | – | – | – | – | – | – | – | – | – | – | – | pest or weed control at 125 g/ha [1, 5]: 45%; pest or weed control at 62 g/ha ([1]; Flood): 40% |
| FCc1nn(-c2ccc(C(F)(F)F)cc2)nc1Oc1cccc(OC(F)(F)F)c1 [Compound 116, 4-(fluoromethyl)-5-[3-(trifluoromethoxy)phenoxy]-2-[4-(trifluoromethyl)phenyl]-2H-1,2,3-triazole] | – | 60% | – | – | – | – | – | – | – | – | – | – | – | – | – | – | – | – | – | – | pest or weed control at 125 g/ha [1, 5]: 40%; pest or weed control at 62 g/ha ([1]; Flood): 35% |
| COc1nn(-c2ccc(C(F)(F)F)cc2)nc1Cc1ccnc(C(F)F)c1 [Compound 138] | – | – | 95 | 95 | 100 | 100 | – | – | – | 75 | 80 | 90 | 100 | 40 | 50 | 80 | 80 | – | – | – | Plant response rating, Pigweed [2, 14]: 90; Plant response rating, Galium ([3]; Postemergence, 16 g ai/ha): 60; Plant response rating, Buckwheat, Wild [4, 14]: 40 |
| Cc1nn(-c2ccc(F)c(C(F)(F)F)c2)nc1Cc1ccnc(C(F)(F)F)c1 [Compound 156] | – | – | 90 | 90 | 95 | – | 85 | 100 | 100 | 75 | 75 | 80 | – | 75 | 80 | 85 | – | 50 | 65 | 100 | Plant response rating, Pigweed [2, 14]: 85; Plant response rating, Pigweed [2, 15]: 50; Plant response rating, Galium ([3]; Postemergence, 16 g ai/ha): 70; Plant response rating, Buckwheat, Wild [4, 14]: 70; Plant response rating, Buckwheat, Wild [4, 15]: 0 |
